Measurements: ChEMBL document CHEMBL1201862, “PubChem BioAssay data set” (2004)
The source made the active and inactive calls.

Assays:
[1] = target: Ras and Rab interactor 1/Tyrosine-protein kinase ABL1 (Homo sapiens, UniProt P00519+Q13671); assay type: functional;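 also: biochemical TR-FRET dose-response test measuring inhibition of binding between Rin1 and Abl proteins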
[2] = target: T1, DNA repair and recombination protein RAD54-like (Homo sapiens, UniProt Q92698); experiment: RAD54 Holliday junction migration blockers – biochemical, fluorescence, cherry-picked samples, dose series, confirmation (AID 651657); assay type: functional
T1 sequence (Q92698 whole entry): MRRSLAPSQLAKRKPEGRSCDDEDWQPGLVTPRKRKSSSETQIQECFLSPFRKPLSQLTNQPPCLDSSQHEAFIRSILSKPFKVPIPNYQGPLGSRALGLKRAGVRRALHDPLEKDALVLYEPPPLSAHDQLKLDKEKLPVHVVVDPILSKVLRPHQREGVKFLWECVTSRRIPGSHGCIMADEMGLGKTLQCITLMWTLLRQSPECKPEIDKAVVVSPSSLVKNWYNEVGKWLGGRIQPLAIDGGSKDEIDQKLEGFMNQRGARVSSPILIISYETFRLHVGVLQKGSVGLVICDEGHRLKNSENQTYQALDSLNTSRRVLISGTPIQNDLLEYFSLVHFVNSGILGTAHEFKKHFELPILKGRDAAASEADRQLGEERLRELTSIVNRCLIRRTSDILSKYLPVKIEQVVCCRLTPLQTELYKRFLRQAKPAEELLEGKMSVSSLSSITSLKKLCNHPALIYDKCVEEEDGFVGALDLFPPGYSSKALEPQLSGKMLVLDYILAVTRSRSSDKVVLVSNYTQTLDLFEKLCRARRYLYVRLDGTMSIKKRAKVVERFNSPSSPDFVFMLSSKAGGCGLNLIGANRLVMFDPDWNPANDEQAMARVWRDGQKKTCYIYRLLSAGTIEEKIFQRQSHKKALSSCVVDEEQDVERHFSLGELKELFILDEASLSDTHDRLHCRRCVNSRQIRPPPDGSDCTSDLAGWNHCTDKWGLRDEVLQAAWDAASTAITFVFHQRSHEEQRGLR

[3] = target: 26S proteasome non-ATPase regulatory subunit 14 (Homo sapiens, UniProt O00487); experiment: inhibition of proteasome subunit RPN11 – biochemical, fluorescence polarization, uHTS hits, confirmation (AID 602368); assay type: functional
[4] = target: Dual specificity tyrosine-phosphorylation-regulated kinase 1A (Rattus norvegicus, UniProt Q63470); assay type: biochemical, Homo sapiens
[5] = target: T2, Rac GTPase-activating protein 1 (Homo sapiens, UniProt Q9H0H5); experiment: blockers of MgcRacGAP-driven Rac1 GTP hydrolysis – biochemical, ADP Hunter fluorescence, primary and confirmatory, confirmation (AID 624330); assay type: functional
T2 sequence (Q9H0H5 whole entry): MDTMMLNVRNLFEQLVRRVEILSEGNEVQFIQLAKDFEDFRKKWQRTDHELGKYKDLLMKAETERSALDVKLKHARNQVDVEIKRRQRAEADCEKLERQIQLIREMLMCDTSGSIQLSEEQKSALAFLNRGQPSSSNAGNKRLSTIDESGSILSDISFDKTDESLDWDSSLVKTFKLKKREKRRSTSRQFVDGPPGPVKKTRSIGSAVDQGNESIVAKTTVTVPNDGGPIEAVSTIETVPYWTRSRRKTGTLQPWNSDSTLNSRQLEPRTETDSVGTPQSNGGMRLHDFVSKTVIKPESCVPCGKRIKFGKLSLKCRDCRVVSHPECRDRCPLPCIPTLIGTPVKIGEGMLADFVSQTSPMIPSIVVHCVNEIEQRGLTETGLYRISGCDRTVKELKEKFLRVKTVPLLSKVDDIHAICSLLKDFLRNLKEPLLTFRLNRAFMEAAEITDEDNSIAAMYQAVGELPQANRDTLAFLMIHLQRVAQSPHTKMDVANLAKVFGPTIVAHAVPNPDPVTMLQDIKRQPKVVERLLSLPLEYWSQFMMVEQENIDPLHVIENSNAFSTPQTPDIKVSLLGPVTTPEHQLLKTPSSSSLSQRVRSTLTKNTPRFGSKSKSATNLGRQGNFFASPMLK

Prothrombin = Prothrombin (Bos taurus, UniProt P00735); experiment: thrombin protease inhibitors – biochemical, fluorescence polarization, uHTS hits, dose response (AID 602369); assay type: functional
[6] = target: 72 kDa type IV collagenase (Homo sapiens, UniProt P08253); experiment: Dose Response validation of uHTS RPN11 inhibitor hits using a MMP-2 Fluorescence assay.; assay type: functional
Streptokinase A = target: T3, Streptokinase A (Streptococcus pyogenes serotype M1, UniProt P10520); experiment: viability-normalized secreted streptokinase activity reduction – plasminogen activation absorbance, OD405, dose response (AID 1914); assay type: functional, Streptococcus pyogenes M1 GAS;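 also: secreted streptokinase activity via plasminogen activation per viability signal from cell pellet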
T3 sequence (P10520 whole entry): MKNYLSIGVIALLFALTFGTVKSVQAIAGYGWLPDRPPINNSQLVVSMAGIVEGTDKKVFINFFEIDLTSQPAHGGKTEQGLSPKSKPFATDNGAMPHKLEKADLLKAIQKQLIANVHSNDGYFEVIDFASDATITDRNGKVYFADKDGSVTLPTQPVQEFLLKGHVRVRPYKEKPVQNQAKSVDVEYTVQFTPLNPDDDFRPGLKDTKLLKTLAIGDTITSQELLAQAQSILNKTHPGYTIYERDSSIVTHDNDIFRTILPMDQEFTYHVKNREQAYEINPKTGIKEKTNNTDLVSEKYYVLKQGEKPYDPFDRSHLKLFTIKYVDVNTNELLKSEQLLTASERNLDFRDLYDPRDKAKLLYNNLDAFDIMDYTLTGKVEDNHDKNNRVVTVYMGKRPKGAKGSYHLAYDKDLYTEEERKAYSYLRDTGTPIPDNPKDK

Streptococcus = experiment: GAS UMAA2166 growth inhibition – luminescence, BacTiterGlo, counter-screen for streptokinase expression inhibitor project, dose response (AID 1915); assay type: functional, organism-based;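 also: potency for reduction of bacterial viability or growth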
[7] = system: Streptococcus sp. 'group A'; experiment: Streptococcus pyogenes SK(-)GAS viability under kanamycin – luminescence, BacTiterGlo, confirmation, counter-screen for streptokinase expression inhibitor project, dose response (AID 1900); assay type: functional, organism-based
[8] = target: DNA (cytosine-5)-methyltransferase 1 (Homo sapiens, UniProt P26358); experiment: inhibition of DNA methylation by DNMT1 – biochemical, fluorescent molecular beacon, confirmation (AID 602386); assay type: functional
cells [9] = assay type: functional, cell-based
cells [10] = assay type: functional, cell-based; remark: listed apart in the source
[11] = target: T4, Trace amine-associated receptor 1 (Homo sapiens, UniProt Q96RJ0); experiment: Fluorescence-based cell-based high throughput dose response assay to identify agonists of the human trace amine associated receptor 1 (TAAR1).; assay type: functional
T4 sequence (Q96RJ0 whole entry): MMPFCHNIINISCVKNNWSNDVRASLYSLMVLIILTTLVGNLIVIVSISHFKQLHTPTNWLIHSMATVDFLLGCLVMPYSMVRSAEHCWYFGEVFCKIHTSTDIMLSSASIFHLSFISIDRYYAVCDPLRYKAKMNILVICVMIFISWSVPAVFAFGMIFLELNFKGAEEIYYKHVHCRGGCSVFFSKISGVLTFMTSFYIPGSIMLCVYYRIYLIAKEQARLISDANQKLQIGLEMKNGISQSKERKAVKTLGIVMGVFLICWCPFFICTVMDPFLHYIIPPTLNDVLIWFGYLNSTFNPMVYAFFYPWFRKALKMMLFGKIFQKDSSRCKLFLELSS

[12] = target: T4, Trace amine-associated receptor 1; experiment: Counterscreen for agonists of the human trace amine associated receptor 1 (hTAAR1): Fluorescence-based cell-based high throughput dose response assay to identify hTAAR1 agonist that also desensitize TAAR1 receptor response.; assay type: functional
[13] = target: T5, Low molecular weight phosphotyrosine protein phosphatase (Homo sapiens, UniProt P24666); assay type: functional; conditions: read-out: IC50_Mean;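 also: Dose-response confirmation assay measuring inhibition of LMPTP enzyme activity by fluorescence intensity read-out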
T5 sequence (P24666 whole entry): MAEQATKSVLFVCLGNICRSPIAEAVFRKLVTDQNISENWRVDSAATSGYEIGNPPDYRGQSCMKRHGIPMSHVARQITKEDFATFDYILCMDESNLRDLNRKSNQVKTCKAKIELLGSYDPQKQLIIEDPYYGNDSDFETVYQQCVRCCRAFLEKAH

[14] = target: T6, DNA repair protein RAD52 homolog (Homo sapiens, UniProt P43351); assay type: functional, biochemical
T6 sequence (P43351 whole entry): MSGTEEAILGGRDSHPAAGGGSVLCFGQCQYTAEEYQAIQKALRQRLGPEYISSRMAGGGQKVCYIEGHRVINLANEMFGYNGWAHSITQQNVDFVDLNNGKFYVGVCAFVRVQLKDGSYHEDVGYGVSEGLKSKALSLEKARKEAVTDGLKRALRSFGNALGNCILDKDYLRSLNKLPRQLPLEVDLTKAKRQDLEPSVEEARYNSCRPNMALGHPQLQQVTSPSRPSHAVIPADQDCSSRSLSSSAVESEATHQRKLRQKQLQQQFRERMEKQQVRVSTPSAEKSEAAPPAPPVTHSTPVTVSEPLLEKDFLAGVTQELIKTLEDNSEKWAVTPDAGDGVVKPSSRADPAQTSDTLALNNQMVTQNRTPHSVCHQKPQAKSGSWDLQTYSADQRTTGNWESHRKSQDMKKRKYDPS

[15] = target: T7, Hepatocyte nuclear factor 4-alpha (Homo sapiens, UniProt P41235); assay type: functional, cell-based;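 also: biochemical luminescence-based dose-response counterscreen measuring inhibition of HNF4 dimerization, run alongside a screen for blockers of ABHD5–perilipin-5 interaction; split luciferase complementation of HNF4 fusion proteins in cell lysate measuring dimerization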
T7 sequence (P41235 whole entry): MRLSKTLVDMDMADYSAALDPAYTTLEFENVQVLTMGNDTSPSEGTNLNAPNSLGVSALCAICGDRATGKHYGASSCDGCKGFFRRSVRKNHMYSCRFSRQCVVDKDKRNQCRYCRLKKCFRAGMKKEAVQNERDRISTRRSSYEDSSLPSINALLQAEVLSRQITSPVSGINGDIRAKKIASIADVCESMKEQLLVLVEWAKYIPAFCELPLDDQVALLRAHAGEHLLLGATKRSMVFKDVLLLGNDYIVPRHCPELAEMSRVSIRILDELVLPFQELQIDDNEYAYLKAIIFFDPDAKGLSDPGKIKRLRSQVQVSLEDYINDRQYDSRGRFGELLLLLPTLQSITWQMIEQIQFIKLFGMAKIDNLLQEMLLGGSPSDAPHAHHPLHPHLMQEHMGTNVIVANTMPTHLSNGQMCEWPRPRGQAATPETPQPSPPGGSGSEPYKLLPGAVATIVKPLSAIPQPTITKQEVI

[16] = target: T8, Heat shock factor protein 1 (Mus musculus, UniProt P38532); experiment: decrease of HSF1-responsive luciferase luminescence – cell-based, NIH3T3, dose retest, confirmation (AID 2382); assay type: functional;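 also: NIH3T3 fibroblasts with HSF1-driven luciferase reporter stressed by proteasome inhibitor MG132; luminescence from HSF1-driven luciferase expression after 8 hours of MG132 stress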
T8 sequence (P38532 whole entry): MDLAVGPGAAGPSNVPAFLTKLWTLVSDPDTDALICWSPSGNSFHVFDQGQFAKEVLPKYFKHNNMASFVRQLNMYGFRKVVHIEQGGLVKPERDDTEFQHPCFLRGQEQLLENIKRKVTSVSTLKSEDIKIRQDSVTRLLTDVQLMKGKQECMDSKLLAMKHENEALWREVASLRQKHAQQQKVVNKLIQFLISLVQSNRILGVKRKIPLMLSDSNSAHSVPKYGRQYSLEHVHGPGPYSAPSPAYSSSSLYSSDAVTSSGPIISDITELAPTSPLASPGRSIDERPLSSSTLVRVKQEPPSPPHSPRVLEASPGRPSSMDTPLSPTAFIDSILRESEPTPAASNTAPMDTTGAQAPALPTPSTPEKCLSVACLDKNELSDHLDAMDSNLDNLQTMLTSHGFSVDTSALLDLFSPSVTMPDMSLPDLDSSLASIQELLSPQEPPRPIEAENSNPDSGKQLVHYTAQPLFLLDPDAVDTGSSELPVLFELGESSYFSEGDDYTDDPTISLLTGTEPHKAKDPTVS

Chain of Ras and Rab interactor 1/Tyrosine-protein kinase ABL1 (P00519 whole entry): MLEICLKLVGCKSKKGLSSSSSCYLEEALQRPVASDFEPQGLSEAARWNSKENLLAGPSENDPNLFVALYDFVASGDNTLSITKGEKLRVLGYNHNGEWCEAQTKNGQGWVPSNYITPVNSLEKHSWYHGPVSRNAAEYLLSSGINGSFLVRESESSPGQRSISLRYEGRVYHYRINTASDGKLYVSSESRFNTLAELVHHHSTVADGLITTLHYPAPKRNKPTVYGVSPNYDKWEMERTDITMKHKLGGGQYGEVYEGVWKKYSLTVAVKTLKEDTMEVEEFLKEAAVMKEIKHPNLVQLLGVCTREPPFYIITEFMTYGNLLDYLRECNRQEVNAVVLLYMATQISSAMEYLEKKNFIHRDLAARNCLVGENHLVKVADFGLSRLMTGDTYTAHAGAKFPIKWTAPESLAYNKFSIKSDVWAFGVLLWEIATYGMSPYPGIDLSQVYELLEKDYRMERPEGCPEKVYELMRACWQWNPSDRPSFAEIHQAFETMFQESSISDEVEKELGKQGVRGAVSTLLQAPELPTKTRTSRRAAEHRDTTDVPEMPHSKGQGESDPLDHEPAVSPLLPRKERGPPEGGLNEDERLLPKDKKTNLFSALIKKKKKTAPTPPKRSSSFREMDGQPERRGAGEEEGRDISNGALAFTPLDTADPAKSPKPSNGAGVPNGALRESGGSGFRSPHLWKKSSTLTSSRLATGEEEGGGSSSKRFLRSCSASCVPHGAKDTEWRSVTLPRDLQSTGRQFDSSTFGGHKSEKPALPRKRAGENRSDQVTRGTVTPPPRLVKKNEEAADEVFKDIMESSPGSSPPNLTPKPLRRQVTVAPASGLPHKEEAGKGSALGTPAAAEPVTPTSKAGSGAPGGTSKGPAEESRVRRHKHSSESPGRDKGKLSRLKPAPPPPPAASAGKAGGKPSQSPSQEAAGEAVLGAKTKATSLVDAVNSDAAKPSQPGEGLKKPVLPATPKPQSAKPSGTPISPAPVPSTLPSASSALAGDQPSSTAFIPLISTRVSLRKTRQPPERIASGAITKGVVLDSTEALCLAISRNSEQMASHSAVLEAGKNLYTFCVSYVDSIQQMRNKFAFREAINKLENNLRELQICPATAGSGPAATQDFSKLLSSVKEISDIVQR
Chain of Ras and Rab interactor 1/Tyrosine-protein kinase ABL1 (Q13671 whole entry): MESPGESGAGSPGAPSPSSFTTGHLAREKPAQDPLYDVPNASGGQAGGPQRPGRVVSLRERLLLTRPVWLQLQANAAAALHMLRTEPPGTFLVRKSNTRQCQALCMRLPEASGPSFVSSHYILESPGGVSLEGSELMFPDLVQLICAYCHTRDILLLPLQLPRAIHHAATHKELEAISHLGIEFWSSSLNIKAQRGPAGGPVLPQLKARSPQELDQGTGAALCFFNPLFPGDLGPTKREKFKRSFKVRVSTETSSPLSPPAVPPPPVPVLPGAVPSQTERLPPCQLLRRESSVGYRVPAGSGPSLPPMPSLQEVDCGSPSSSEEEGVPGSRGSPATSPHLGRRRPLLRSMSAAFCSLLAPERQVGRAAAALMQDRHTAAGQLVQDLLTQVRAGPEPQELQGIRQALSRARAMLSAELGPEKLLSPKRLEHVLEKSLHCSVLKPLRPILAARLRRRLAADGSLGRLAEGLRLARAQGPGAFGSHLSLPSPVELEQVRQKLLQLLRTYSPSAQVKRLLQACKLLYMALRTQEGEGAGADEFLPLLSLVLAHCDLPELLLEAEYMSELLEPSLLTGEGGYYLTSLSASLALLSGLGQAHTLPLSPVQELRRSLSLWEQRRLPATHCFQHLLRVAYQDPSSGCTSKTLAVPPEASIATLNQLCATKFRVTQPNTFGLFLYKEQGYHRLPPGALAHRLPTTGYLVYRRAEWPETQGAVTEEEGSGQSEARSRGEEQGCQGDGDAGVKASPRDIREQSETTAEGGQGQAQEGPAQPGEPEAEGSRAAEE
Chain of 26S proteasome non-ATPase regulatory subunit 14 (O00487 whole entry): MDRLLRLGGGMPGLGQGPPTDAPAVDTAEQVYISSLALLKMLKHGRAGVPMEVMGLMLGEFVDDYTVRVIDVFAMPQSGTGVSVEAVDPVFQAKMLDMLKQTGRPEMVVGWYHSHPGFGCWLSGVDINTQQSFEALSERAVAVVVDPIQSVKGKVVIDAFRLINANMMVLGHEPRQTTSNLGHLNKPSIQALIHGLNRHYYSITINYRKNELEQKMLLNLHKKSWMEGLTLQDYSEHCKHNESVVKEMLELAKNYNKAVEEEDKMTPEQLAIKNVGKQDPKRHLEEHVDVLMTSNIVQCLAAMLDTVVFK
Chain of 72 kDa type IV collagenase (P08253 whole entry): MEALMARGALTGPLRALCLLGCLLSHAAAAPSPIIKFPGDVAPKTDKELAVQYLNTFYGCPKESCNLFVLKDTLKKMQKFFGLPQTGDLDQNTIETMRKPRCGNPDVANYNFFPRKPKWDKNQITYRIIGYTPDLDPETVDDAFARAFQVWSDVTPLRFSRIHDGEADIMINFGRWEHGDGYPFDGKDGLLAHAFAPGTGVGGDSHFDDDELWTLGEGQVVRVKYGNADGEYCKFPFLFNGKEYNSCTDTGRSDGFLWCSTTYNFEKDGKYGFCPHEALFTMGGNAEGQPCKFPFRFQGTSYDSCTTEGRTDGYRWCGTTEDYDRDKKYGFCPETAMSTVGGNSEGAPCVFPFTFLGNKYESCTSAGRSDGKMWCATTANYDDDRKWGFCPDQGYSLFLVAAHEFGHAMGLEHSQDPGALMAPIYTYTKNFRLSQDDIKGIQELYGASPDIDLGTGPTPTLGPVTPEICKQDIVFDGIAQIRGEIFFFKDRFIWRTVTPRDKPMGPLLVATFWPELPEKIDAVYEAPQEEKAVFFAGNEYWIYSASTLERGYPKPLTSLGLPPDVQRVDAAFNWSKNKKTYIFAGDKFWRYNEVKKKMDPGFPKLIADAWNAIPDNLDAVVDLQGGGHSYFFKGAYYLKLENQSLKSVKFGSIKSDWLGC
Chain of DNA (cytosine-5)-methyltransferase 1 (P26358 whole entry): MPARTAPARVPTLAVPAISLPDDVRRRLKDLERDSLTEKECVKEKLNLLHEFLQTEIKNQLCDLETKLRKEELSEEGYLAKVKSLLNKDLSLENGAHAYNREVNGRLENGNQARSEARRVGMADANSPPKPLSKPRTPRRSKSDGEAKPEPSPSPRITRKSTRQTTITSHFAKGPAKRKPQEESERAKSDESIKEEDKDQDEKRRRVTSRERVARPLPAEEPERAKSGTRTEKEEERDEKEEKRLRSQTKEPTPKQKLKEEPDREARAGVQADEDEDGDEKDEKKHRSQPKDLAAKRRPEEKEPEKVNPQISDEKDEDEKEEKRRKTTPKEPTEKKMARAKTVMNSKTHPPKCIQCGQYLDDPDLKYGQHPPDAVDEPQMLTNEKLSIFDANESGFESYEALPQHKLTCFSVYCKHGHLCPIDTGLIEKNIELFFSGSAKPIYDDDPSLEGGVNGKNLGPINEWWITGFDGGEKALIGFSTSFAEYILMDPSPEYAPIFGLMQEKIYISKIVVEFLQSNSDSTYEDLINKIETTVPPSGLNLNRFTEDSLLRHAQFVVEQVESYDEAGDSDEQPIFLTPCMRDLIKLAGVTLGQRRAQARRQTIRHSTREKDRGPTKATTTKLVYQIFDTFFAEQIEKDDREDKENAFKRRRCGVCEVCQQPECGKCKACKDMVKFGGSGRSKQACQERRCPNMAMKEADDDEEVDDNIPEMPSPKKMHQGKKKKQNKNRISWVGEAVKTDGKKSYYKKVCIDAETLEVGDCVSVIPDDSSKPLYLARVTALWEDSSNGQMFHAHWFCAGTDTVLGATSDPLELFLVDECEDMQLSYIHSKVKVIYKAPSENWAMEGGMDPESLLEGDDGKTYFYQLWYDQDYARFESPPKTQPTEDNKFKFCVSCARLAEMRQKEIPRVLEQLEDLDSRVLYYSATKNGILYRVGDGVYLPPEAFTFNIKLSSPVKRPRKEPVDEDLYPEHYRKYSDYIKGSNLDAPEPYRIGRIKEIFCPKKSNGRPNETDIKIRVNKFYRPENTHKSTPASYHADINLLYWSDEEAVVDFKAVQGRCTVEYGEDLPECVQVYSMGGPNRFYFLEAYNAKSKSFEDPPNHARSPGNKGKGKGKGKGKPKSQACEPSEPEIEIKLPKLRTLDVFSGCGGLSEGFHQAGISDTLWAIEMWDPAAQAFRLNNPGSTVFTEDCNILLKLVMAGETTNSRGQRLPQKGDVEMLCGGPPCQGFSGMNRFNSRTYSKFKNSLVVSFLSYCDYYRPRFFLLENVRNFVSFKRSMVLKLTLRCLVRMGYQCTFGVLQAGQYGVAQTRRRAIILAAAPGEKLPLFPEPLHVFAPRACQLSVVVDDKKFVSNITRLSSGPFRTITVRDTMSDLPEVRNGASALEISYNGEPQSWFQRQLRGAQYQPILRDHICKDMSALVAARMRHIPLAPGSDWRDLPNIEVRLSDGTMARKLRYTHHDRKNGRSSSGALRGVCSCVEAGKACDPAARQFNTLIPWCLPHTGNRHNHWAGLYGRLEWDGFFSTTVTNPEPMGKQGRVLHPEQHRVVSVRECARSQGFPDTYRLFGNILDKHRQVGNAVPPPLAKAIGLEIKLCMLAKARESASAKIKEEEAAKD

COC(=O)CCSCc1cn2cc(Cl)ccc2n1
IC50 [1]: 8.83 µM (active)

CCOc1ccccc1N(C(=O)c1snc(C(N)=O)c1N)C(C(=O)NCC1CCCO1)c1ccc2ncccc2c1 (centres undefined)
IC50 [1]: 25.1 µM (inactive)

O=C(Nc1cccc([N+](=O)[O-])c1)c1cc(S(=O)(=O)N2CCOCC2)cs1
AC50 [2]: 21.8 µM (active)

COc1cc(/C=C2\SC(N)=NC2=O)cc(Cl)c1O
IC50 [3]: 26.8 µM (active) | AC50 [4]: 18.6 µM (active) | IC50 [5]: 43.6 µM (active) | IC50 (Prothrombin): 32.8 µM (active) | IC50 [6]: > 100 µM (inactive)

COc1ccc(-c2nn(-c3ccccc3)cc2/C=C2/SC(=S)N(CCC(=O)O)C2=O)cc1
EC50 (Streptokinase A): > 150 µM (not active) | EC50 (Streptococcus): 4.88 µM (active) | EC50 [7]: 2.14 µM (active) | IC50 [8]: 5.06 µM (active)

Cc1cc(C(=O)CSc2nnnn2-c2ccccc2)c(C)n1CCc1ccccc1
IC50 (cells [9]): > 29.9 µM (inactive) | EC50 (cells [10]): > 29.9 µM (inactive) | EC50 [11]: 3.4 µM (active) | IC50 [12]: 6.28 µM (active)

CC(C1SC(=S)NC1=O)C1SC(=S)NC1=O (centres undefined)
IC50 [3]: 45.4 µM (active) | IC50 (Prothrombin): 52.4 µM (active) | IC50 [13]: 80 µM (inactive) | IC50 [6]: > 100 µM (inactive)

COCCN(CCOC)C(=O)CSc1ccc(S(=O)(=O)N2CCN(C)CC2)cn1
IC50 [1]: 20.5 µM (inactive)

CC(=O)Nc1cc(-c2ccc(N3CCN(C)CC3)cc2)cn2c(-c3cccc(C(C)=O)c3)cnc12
AC50 [14]: 4.9 µM (active) | AC50 [2]: 14.8 µM (active)

CC(C)(C)NC(=O)C(c1ccccc1)n1c(=O)c(-c2ccco2)nc2ccccc21 (centres undefined)
IC50 [15]: 1.4 µM (active)

COc1ccc(NC(=O)C(c2ccc(C#N)cc2)n2c(=O)c(-c3ccco3)nc3ccccc32)cc1 (centres undefined)
IC50 [15]: 13.5 µM (inactive)

COc1cccc(C(=O)N[C@H](C(=O)N2CCC[C@H]2C(=O)NCCc2ccccc2Cl)C(C)C)c1
IC50 (cells [9]): > 29.9 µM (inactive) | EC50 (cells [10]): > 29.9 µM (inactive) | EC50 [11]: 1.08 µM (active) | IC50 [12]: 2.22 µM (active)

C/C(=N\CCc1ccccc1)C1=C(O)SCC1=O
IC50 (cells [9]): > 29.9 µM (inactive) | EC50 (cells [10]): > 29.9 µM (inactive) | EC50 [11]: 1.55 µM (active) | EC50 [16]: > 195 µM (not active) | IC50 [12]: 9.57 µM (active)
